Values joined by “and” are separate entries in the source; they are usually repeats but may differ in a detail not shown here. Equal entries are not always repeated.
Legend:
Balb/c mice = assay: PK/PD studies in wild type Balb/c mice, oral gavage QD×7; format: in vivo
Experimental: Two pharmacokinetic (PK)/phamacodynamic (PD) studies were conducted in Balb/c mice that were administered Compound 1 once daily by oral gavage (formulated in 10% Cremophor EL/10% PG/80% DI water) for 7 days (QD×7) at doses of 0 (vehicle), 3.75, 7.5, 15, 30, 60 mg/kg (Study 1); 0 (vehicle), 7.5, 15, 30, 60, 120, or 240 mg/kg (Study 2). On the 7th day, whole blood was collected 24 hours after dosing and snap frozen. Samples were later thawed and analyzed by LC/MS for 2,3-DPG and ATP levels.

Berkeley SS mouse = Berkeley SS mouse model of SCD, 7 days in chow; format: in vivo; details: 1000 ppm in chow
Source text: Targeted gene deletions and a human transgene in the Berkeley SS mouse model result in mice that express human HgbS almost exclusively (Pászty C. Transgenic and gene knock-out mouse models of sickle cell anemia and the thalassemias. Curr Opin Hematol. 1997 March; 4(2):88-93) and mimic the genetic, hematologic, and histopathologic features of SCD in humans. These include irreversibly sickled RBCs, anemia, and multi-organ pathology.
The effects of Compound 1 on Hgb affinity for oxygen, percentage of sickled cells, and/or Hgb were evaluated in the Berkley SS mouse. Two studies were conducted where mice received 0 or 1000 ppm Compound 1 ad libitum in mouse chow for 7 days. Blood was drawn on Day 7 and analyzed under hypoxic conditions. Red cell parameters were measured by ADVIA.

wt-PKR [1] = target: T1, wt-PKR (Homo sapiens, UniProt P30613); assay: Enzyme assay: activation (rate of ATP formation) by different concentrations, wt-PKR; format: biochemical; details: PEP at or below Km
PKR-R510Q [2] = target: T2, PKR-R510Q (Homo sapiens, UniProt P30613, R510Q); assay: Enzyme assay: activation (rate of ATP formation) by different concentrations, PKR-R510Q; format: biochemical; details: PEP at or below Km
PKR = target: T3, PKR (Mus musculus, UniProt P53657); assay: PKR activation in mouse red blood cells; format: cell-based; details: mouse RBCs
T3 construct: Mouse RBCs were isolated fresh from whole blood using a Ficoll gradient; endogenous in cells; host or cells: freshly isolated mouse red blood cells
Experimental: (§1) The activation of wt-PKR by Compound 1 in mature human erythrocytes ex vivo was evaluated in purified RBCs purchased from Research Blood Components. Cells treated with Compound 1 for 3 hr in glucose-containing media were washed, lysed, and assayed using a Biovision Pyruvate Kinase Assay (K709-100). The assay was repeated multiple times to account for donor-to-donor variability and the relatively narrow dynamic range.
Mouse RBCs were isolated fresh from whole blood using a Ficoll gradient and assayed with methods similar to those used in the human RBCs assays.

healthy volunteers [3] = assay: Phase 1 multiple ascending dose (MAD) cohorts, 14 days; format: in vivo, human
Source text: (§2) This is a first-in-human (FIH), Phase 1 study of Compound 1 that will characterize the safety, PK, and PD of Compound 1 after a single dose and after repeated dosing first in healthy adult volunteers and then in adolescents or adults with sickle cell disease. Initially, a dose range of Compound 1 in single ascending dose (SAD) escalation cohorts will be explored in healthy subjects. Enrollment of healthy subjects into 2-week multiple ascending dose (MAD) escalation cohorts will be initiated once the safety and PK from at least two SAD cohorts is available to inform the doses for the 2-week MAD portion of the study. The MAD cohorts will then run in parallel to the single dose cohorts. A single dose cohort is planned to understand food effects (FE) on the PK of Compound 1. […] Multiple dose studies in SCD subjects will then be initiated upon completion of MAD studies in healthy volunteers. Compound 1 will be administered in 25 mg and 100 mg tablets delivered orally.
(§3) Four healthy SAD cohorts were evaluated at doses of 200, 400, 700, and 1000 mg, and four healthy MAD cohorts received 200 to 600 mg total daily doses for 14 days at QD or BID dosing (100 mg BID, 200 mg BID, 300 mg BID, and 400 mg QD). In the food effect (FE) cohort, 10 healthy subjects received 200 mg of Compound 1 QD with and without food.
In the MAD cohorts, the subjects' blood 2,3-DPG levels were measured periodically after dosing by a qualified LC-MS/MS method for the quantitation of 2,3-DPG in blood. The maximum decrease in 2,3-DPG on Day 14 was 55% from baseline (median). […] Table 16 reports the median percentage change in 2,3-DPG blood levels, relative to baseline, measured over time after the first dose on days 1 and 14 in healthy volunteers who received daily doses of Compound 1 (100 mg BID, 200 mg BID, or 300 mg BID) or placebo for 14 days. Accordingly, the median reduction in the concentration of 2,3-DPG, relative to baseline, was at least about 25% at all dose levels tested 24 hours after administration of the first dose on day 1 and at least about 40% at all dose levels tested 24 hours after administration of the first dose on day 14.
In the MAD cohorts, the subjects' P50 (PO2 at 50% hemoglobin saturation) were determined on day 14. P50 values measured after 14 days of twice daily dosing were reduced at all dose levels tested (median reduction ranged from −3-5 mmHg). Table 17 reports the mean absolute change in P50, relative to baseline, measured on day 14 in healthy volunteers who received daily doses of Compound 1 (100 mg BID, 200 mg BID, or 300 mg BID) or placebo for 14 days.
In the MAD cohorts, the subjects' blood ATP levels were measured on day 14 by a qualified LC-MS/MS method for the quantitation of ATP in blood. […] Table 18 reports the median percentage change in blood ATP levels, relative to baseline, measured over time after the first dose on day 14 in healthy volunteers who received daily doses of Compound 1 (100 mg BID, or 200 mg BID) or placebo for 14 days.
(§4) The following procedures are employed for the analysis of ATP and 2,3-DPG in human whole blood K2EDTA using a protein precipitation extraction procedure and analysis by LC-MS/MS.

PKR-R510Q [4] = target: T2, PKR-R510Q; assay: Enzyme assay: effect on Vmax and PEP Km, PKR-R510Q; format: biochemical; details: 2 μM Compound 1; for Vmax: PKR R510Q, normalized to 1.00 relative to other values in the row
Experimental: (§5) Tests were conducted in the presence and absence of fructose-1,6-bisphosphate (FBP), a known allosteric activator of PKR.

PKR-R510Q [5] = target: T2, PKR-R510Q; assay: Luminescence Assay (Kinase Glo Plus), PKR(R510Q); format: biochemical; details: 100 μM PEP, 100 μM ADP, read-out: AC50 (PKRR510Q)
Experimental: For each tested compound, the ability to activate PKR was determined using the following Luminescence Assay. The effect of phosphorylation of adenosine-5′-diphosphate (ADP) by PKR is determined by the Kinase Glo Plus Assay (Promega) in the presence or absence of FBP (D-fructose-1,6-diphosphate; BOC Sciences, CAS: 81028-91-3) as follows. Unless otherwise indicated, all reagents are purchased from Sigma-Aldrich. All reagents are prepared in buffer containing 50 mM Tris-HCl, 100 mM KCl, 5 mM MgCl2, and 0.01% Triton X100, 0.03% BSA, and 1 mM DTT. Enzyme and PEP (phosphoenolpyruvate) are added at 2× to all wells of an assay-ready plate containing serial dilutions of test compounds or DMSO vehicle. Final enzyme concentrations for PKR(wt), PKR(R510Q), and PKR(G332S) are 0.8 nM, 0.8 nM, and 10 nM respectively. Final PEP concentration is 100 μM. The Enzyme/PEP mixture is incubated with compounds for 30 minutes at RT before the assay is initiated with the addition of 2×ADP and KinaseGloPlus. Final concentration of ADP is 100 μM. […] For assays containing FBP, that reagent is added at 30 μM upon reaction initiation. Reactions are allowed to progress for 45 minutes at RT until luminescence is recorded by the BMG PHERAstar FS Multilabel Reader. The compound is tested in triplicate at concentrations ranging from 42.5 μM to 2.2 nM in 0.83% DMSO. […]

healthy volunteers [6] = assay: Phase 1 single ascending dose (SAD) cohorts; format: in vivo, human
Source text: as §2, §3
In the SAD cohorts, the subjects' blood 2,3-DPG levels were measured periodically after dosing by a qualified LC-MS/MS method for the quantitation of 2,3-DPG in blood. Decreased 2,3-DPG blood levels were observed 6 hours following a single dose of Compound 1 at all dose levels (earlier timepoints were not collected). Maximum decreases in 2,3-DPG levels generally occurred ˜24 hours after the first dose with the reduction sustained ˜48-72 hr postdose. Table 14 reports the median percentage change in 2,3-DPG blood levels, relative to baseline, measured over time in healthy volunteers after a single dose of Compound 1 (200 mg, 400 mg, 700 mg, or 1000 mg) or placebo. Accordingly, the median reduction in the concentration of 2,3-DPG, relative to baseline, was at least about 30% at all dose levels tested 24 hours after administration of the single dose.
In the SAD cohorts, the subjects' P50 (PO2 at 50% hemoglobin saturation) were determined 24-hours post-dose. P50 measured 24 hours after a single dose of Compound 1 were reduced at all dose levels tested (median reduction ranged from ˜3-5 mmHg). Table 15 reports the mean absolute change in P50, relative to baseline, measured 24 hours after a single dose of Compound 1 (200 mg, 400 mg, 700 mg, or 1000 mg) or placebo in healthy volunteers.
as §4

wt-PKR [7] = target: T1, wt-PKR; assay: PKR activation in mature human erythrocytes ex vivo (Biovision Pyruvate Kinase Assay); format: cell-based; set-up: evaluated in purified RBCs purchased from Research Blood Components; host or cells: purified mature human erythrocytes from donors; details: human RBCs, 3 hr treatment
Experimental: as §1

wt-PKR [8] = target: T1, wt-PKR; assay: Enzyme assay: effect on Vmax and PEP Km, wt-PKR; format: biochemical; details: 2 μM Compound 1; for Vmax: WT-PKR, normalized to 1.00 relative to other values in the row
Experimental: as §5

[9] = MAD, all doses and timepoints, N = 36
[10] = SAD, all doses and timepoints, N = 24

T1 sequence (P30613 whole entry): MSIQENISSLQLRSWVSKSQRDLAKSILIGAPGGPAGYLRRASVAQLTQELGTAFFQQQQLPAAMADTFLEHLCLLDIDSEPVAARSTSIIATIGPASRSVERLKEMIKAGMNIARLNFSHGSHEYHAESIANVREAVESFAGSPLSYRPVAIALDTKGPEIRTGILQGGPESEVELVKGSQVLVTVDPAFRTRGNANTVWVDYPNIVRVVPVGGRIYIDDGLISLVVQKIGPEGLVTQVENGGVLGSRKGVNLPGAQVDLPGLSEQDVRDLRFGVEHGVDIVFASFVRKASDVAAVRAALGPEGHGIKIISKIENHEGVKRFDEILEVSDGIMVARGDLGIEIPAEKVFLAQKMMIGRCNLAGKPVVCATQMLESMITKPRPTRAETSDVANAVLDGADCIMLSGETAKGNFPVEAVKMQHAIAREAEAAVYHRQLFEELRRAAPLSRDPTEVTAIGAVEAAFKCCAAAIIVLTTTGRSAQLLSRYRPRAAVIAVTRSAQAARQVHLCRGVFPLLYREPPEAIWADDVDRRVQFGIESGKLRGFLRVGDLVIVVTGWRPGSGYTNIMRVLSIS
T2 sequence (P30613 whole entry R510Q): as the sequence (P30613 whole entry) above, with R510Q counted along it
T3 sequence (P53657 whole entry): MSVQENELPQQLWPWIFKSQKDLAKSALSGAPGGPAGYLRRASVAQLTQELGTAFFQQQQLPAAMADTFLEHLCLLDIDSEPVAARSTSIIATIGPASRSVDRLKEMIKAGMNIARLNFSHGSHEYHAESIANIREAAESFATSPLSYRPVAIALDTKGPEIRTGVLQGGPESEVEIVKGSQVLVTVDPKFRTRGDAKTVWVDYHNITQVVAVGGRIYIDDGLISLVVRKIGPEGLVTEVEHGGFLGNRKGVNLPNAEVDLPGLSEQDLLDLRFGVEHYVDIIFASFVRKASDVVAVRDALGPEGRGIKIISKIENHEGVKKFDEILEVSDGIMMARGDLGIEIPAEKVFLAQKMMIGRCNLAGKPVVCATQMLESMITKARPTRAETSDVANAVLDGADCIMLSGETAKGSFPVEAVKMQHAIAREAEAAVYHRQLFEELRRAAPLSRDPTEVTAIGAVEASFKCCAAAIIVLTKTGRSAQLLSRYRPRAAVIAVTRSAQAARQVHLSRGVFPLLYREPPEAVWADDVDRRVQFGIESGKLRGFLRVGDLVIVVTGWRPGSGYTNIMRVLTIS

O=C([C@H](CO)c1ccccc1)N1CC2=C(C1)CN(S(=O)(=O)c1cnc3c(c1)OCCO3)C2 (single isomer, unassigned) [Compound 1]
Exposure versus dose (Balb/c mice; mice, oral): increased in a dose-proportional manner
Adverse clinical signs (Balb/c mice; oral QD×7, both studies): No adverse clinical signs were observed
Body weight change (Balb/c mice; oral QD×7, both studies): no differences in body weight change compared with the vehicle group
Tolerability (Balb/c mice; oral QD×7, up to 240 mg/kg, both studies): well tolerated up to the highest dose tested
Level of reticulocytes (Berkeley SS mouse): reduced
Oxygen affinity to Hgb under hypoxic conditions (Berkeley SS mouse): increased
Percentage of RBCs that sickled at low oxygen pressures (Berkeley SS mouse): decreased
Time to sickle (Berkeley SS mouse): increased
P50 (Berkeley SS mouse; hypoxic conditions): decreased
Maximum-fold Activation (wt-PKR [1]): <2.0 fold
Maximum-fold Activation (PKR-R510Q [2]): <3.0 fold
Max − Min (%), Mean (PKR; mean of replicates): <100%
Max − Min (%) (PKR; single replicates): <50% and <100%
PK linearity, multiple doses (healthy volunteers [3]; 100-300 mg BID, 400 mg QD): linear PK was observed across all dose levels
Serious adverse events / AEs leading to withdrawal (healthy volunteers [3]; MAD cohorts 200-600 mg total daily, 14 days): No serious adverse events (SAEs) or AEs leading to withdrawal were reported
2,3-DPG, Mean Maximum Percent Change from Baseline (healthy volunteers [3]; [9]): −56.3%
ATP, Mean Maximum Percent Change from Baseline (healthy volunteers [3]; [9]): 68.5%
Median reduction of P50 (healthy volunteers [3]; after 14 days of twice daily dosing, all dose levels): −3-5 mmHg
Blood ATP levels relative to baseline (healthy volunteers [3]; day 14, remained so 60 hours after the last dose): elevated
Exposure over time, multiple doses (healthy volunteers [3]; up to day 14): remained steady up to day 14, without cumulative effect
Vmax (PKR-R510Q [4]; 30 μM FBP): 1.29
Vmax (PKR-R510Q [4]; No FBP): 1.56
Effect on Vmax (PKR-R510Q [4]; PKR-R510Q): no effect to a modest increase
Reduction of PEP Km (PKR-R510Q [4]; PKR-R510Q, presence or absence of FBP): ~2 fold
AC50 (PKR-R510Q [5]): ≤ 0.1 µM
Time of maximum decrease in 2,3-DPG levels after the first dose (healthy volunteers [6]; SAD cohorts): ~24 h
Serious adverse events / AEs leading to withdrawal (healthy volunteers [6]; SAD cohorts 200-1000 mg): No serious adverse events (SAEs) or AEs leading to withdrawal were reported
2,3-DPG, Mean Maximum Percent Change from Baseline (healthy volunteers [6]; [10]): −46.8%
ATP, Mean Maximum Percent Change from Baseline (healthy volunteers [6]; [10]): 24.4%
Median reduction in the concentration of 2,3-DPG relative to baseline (healthy volunteers [6]; all dose levels, 24 hours after single dose): at least 30%
Single dose exposure versus dose (healthy volunteers [6]; doses ≥700 mg): increased in greater than dose-proportional manner
Time of pharmacodynamic maximum (minimum of 2,3-DPG concentration) (healthy volunteers [6]; single dose 400 mg): ~24 h
Time of pharmacokinetic maximum (maximum of the PK curve) (healthy volunteers [6]; single dose 400 mg): 1 to 2 h
EC50 (wt-PKR [7]; mean of replicates): < 125 nM
Max − Min (%) (wt-PKR [7]; single replicates): <125% and <150% and <100% and <50%
Vmax (wt-PKR [8]; 30 μM FBP): 1.16
Vmax (wt-PKR [8]; No FBP): 1.14
Effect on Vmax (wt-PKR [8]; wt-PKR): no effect to a modest increase
Reduction of PEP Km (wt-PKR [8]; wt-PKR, presence or absence of FBP): ~2 fold

Reference: patent US12053458B2, “Treating sickle cell disease with a pyruvate kinase R activating compound” (Novo Nordisk Health Care AG, priority 2018, dated 2024)
